Earlier results as cited in patent publication US20020037319A1, “Drug preparations” (priority 1999, published 2002).
Where a name gives a salt, the structure may show the parent alone.

Legend:
[1] = oral, therapeutic dosages between 100 mg and 200 mg per day

O=C(O)Cc1ccccc1Nc1c(Cl)cccc1Cl [diclofenac potassium]
solubility in water: soluble

O=C(O)Cc1ccccc1Nc1c(Cl)cccc1Cl [diclofenac, 2-[2,6-di-chlorophenyl)amino]benzeneacetic acid, monosodium or monopotassium salt]
solubility in chloroform (sodium or potassium salt): practically insoluble
solubility in dilute acid (sodium or potassium salt): practically insoluble
solubility in ethanol (sodium or potassium salt): soluble
solubility in methanol (sodium or potassium salt): freely soluble
treated patients who experience some form of GI (gastrointestinal) distress [1]: more than 50%

O=C(O)Cc1ccccc1Nc1c(Cl)cccc1Cl [Diclofenac sodium]
solubility in water: sparingly soluble
